Data published in patent US6030963A, “16-ene-26,27-bishomo cholecalciferols” (Hoffmann-La Roche Inc., priority 1998, dated 2000).

Legend:
[1] = Calcium tolerance test in mice (weight gain, highest tolerated dose); conditions: mouse, in vivo, sc, daily subcutaneous, 4 consecutive days, body weight before and at end of 5 day treatment period, read-out: HTD (highest tolerated dose: dose which results in zero weight gain during treatment period)
Description: Calcium Tolerance Test In Mice
Profound changes in calcium homeostasis strongly affect the weight development of mice.
Mice (25-30 g body weight) received daily subcutaneous administrations of the compound for 4 consecutive days. Body weight was registered just before and at the end of a […] treatment period. The "highest tolerated dose" (HTD) is the dose which results in zero weight gain during this treatment period.

[2] = tested on: HL-60 cells; experiment: HL-60 cell differentiation (NBT reduction, oxidative burst potential); format: cell-based; conditions: Homo sapiens, 72 h, 3 days incubation, NBT reduction at 540 nm, mean of 3 wells, S.E.M. between 5 and 10%, read-out: ED50 (concentration leading to 50% of maximal differentiation achieved with 100-1000 nM calcitriol)
Protocol: HL-60 Cell Differentiation
The induction of differentiation of HL-60 cells was assayed by measuring their oxidative burst potential via the reduction of nitrobluetetrazolium (NBT).
HL-60 cells (30,000 cells in 90 μl of supplemented RPMI medium) were seeded into flat-bottomed microliter wells. Immediately after seeding, 10 μl of test compounds listed below in Table I diluted in supplemented RPMI medium were added to the wells to yield final concentrations of between 10^-11 and 10^-6 M (starting from stock solutions of 10^-2 M in ethanol, stored at -20° C. and protected from light). After 3 days, medium was removed from the wells with a multichannel pipette and replaced with 100 μl of NBT solution (1 mg/ml in phosphate buffered saline with 200 nM phorbol myristate acetate). Following an additional hour incubation at 37° C. the NBT solution was removed and 100 μl of 10% sodium dodecyl sulfate in 0.01 N HCl was added. The amount of the reduced NBT was quantified photometrically at 540 nm using an automated plate reader. The mean of 3 wells was calculated. […] Values were expressed as percent of maximal differentiation achieved with 100-1000 nM calcitriol in the same experiment.

SMILES | MTD [1] | EC50 [2]
C=C1/C(=C\C=C2/CCC[C@]3(C)C([C@H](C)C/C=C/C(O)(CC)CC)=CC[C@@H]23)C[C@@H](O)C[C@@H]1O [1,25-Dihydroxy-16,23E-diene-26,27-bishomo-cholecalciferol] | 2 µg/kg | 3.8 nM
C=C1/C(=C\C=C2/CCC[C@]3(C)C([C@H](C)C/C=C\C(O)(CC)CC)=CC[C@@H]23)C[C@@H](O)C[C@@H]1O [1,25-Dihydroxy-16,23Z-diene-26,27-bishomo-cholecalciferol] | 2.5 µg/kg | 6.2 nM
C=C1/C(=C\C=C2/CCC[C@]3(C)C([C@H](C)CC#CC(O)(CC)CC)=CC[C@@H]23)C[C@@H](O)C[C@@H]1O [1,25-Dihydroxy-16-ene-23-yne-26,27-bishomo-cholecalciferol] | 4 µg/kg | 2.5 nM
